The text below walks through data of EP2676954A1, “Heterocyclyl-substituted-phenyl derivatives as vasodilators” (Laboratorios del Dr. Esteve S.A., priority 2012, dated 2013).

The test has as its system Male Wistar rats. In words: Penile erection test (penile erection score) in conscious rats. The class given is in vivo. To be noted: after local injection (animal studies). The procedure:
Male Wistar rats aged from 8 to 10 weeks old (250 - 320 g) were used in these studies. Animals were housed in groups of five, provided with food and water ad libitum and kept in controlled laboratory conditions with the temperature maintained at 22 ± 2 °C and light in 12 h cycles (on at 06:00 h and off at 18:00 h). Experiments were carried out in a soundproof and air-regulated experimental room. The number of rats ranged from 5 to 34 per group in each individual experiment.
Drugs used for treatments were: Compound 1, Compound 2, Compound 3 and Alprostadil.
Male Wistar rats received local injections (intrapenis injections) or topical administrations of test substances and penile erection was quantified (penile erection score) from 15 to 30 min after local drug injection and from 5 to 60 min after topical drug administration. The magnitude of penile erection is determined by penile erection score. The Baseline was determined based on vehicle injection. […]
For evaluating the penile erection after both types of administration, a qualitative score method was used, where 0 = no effect, 1 = slight effect, 2 = some effect without exposure of the penis, and 3 = clear effect with exposure of the penis. The reading times for the local injection were 15 and 30 minutes, and for the topical application were 5, 15, 30, and 60 minutes.
Data are expressed as Mean±SEM. […]

Each structure is given as a SMILES string.

Take `Cc1nn(C)c(C)c1-c1ccc(O)c(CCN(C)C)c1` [Compound 1, 2-(2-(Dimethylamino)ethyl)-4-(1,3,5-trimethyl-1H-pyrazol-4-yl)phenol]: the penile erection entry is recorded as “cause penile erection in the absence of sexual stimulation”. Under `Cc1nn(C)c(C)c1-c1cccc(CCN(C)C)c1` [Compound 2, Dimethyl-{2-[3-(1,3,5-trimethyl-1H-pyrazol-4-yl)-phenyl]-ethyl}-amine] stands “cause penile erection in the absence of sexual stimulation”.
